{"source": "patent US12721985B2", "about": "“Microneedle patch system for transdermal drug delivery” (INDUSTRY-ACADEMIC COOPERATION FOUNDATION GYEONGSANG …, priority 2021, dated 2026)", "experiment": "Drug blood concentration pattern in rats after donepezil administration", "details": "rat, in vivo", "description": "More specifically, 3 mg/kg of donepezil was administered orally, 1 mg/kg of donepezil was administered subcutaneously, or 43 mg/kg of donepezil was administered using the microneedle patch prepared in the above example to rats, and the drug blood concentration patterns were compared.\nNext, rats were administered donepezil at different concentrations of 43 mg/kg, 80 mg/kg, and 125 mg/kg using the microneedle patch prepared in the above example, respectively, and the drug blood concentration patterns were compared.\nNext, after administering 80 mg/kg of donepezil to rats using the microneedle patch prepared in the above example, the drug blood concentration pattern was compared between the case where the needle was removed in 1 hour and the case where the needle was applied for 3 days."}
{"smiles": "COc1cc2c(cc1OC)C(=O)C(CC1CCN(Cc3ccccc3)CC1)C2", "note": "(centres unmarked) [donepezil]", "values": [{"measurement": "time in which drug blood concentration was very low", "setting": "po, 3 mg/kg", "result": "about 1 day"}, {"measurement": "time in which drug blood concentration was very low", "setting": "sc, 1 mg/kg", "result": "about 1 day"}]}
